Values after ≈ are worked out from the molar mass of the structure shown. Values belong to the molecule of their own block, whether it stands above or below them. Active and inactive are the calls of the source. The rule behind the calls is not given here.
Legend:
MDA-MB-361 [1] = experiment: Antiproliferative activity against human MDA-MB-361 cells assessed as cell growth inhibition incubated for 1 days by MTS assay; assay type: functional, cell-based; details: MDA-MB-361, 24 h
MDA-MB-361 [2] = experiment: Antiproliferative activity against human MDA-MB-361 cells assessed as cell growth inhibition incubated for 2 days by MTS assay; assay type: functional, cell-based; details: MDA-MB-361, 48 h
MDA-MB-361 [3] = experiment: Antiproliferative activity against human MDA-MB-361 cells assessed as cell growth inhibition incubated for 3 days by MTS assay; assay type: functional, cell-based; details: MDA-MB-361, 72 h
A498 [4] = experiment: cells; details: Homo sapiens, A498, 24 h
Description: Antiproliferative activity against human A498 cells assessed as cell growth inhibition incubated for 1 days by MTS assay

A498 [5] = experiment: cells; details: Homo sapiens, A498, 48 h
Description: Antiproliferative activity against human A498 cells assessed as cell growth inhibition incubated for 2 days by MTS assay

A498 [6] = experiment: cells; details: Homo sapiens, A498, 72 h
Description: Antiproliferative activity against human A498 cells assessed as cell growth inhibition incubated for 3 days by MTS assay

MDA-MB-361 [7] = experiment: Antiproliferative activity against human MDA-MB-361 cells assessed as suppression in cell growth at 10 micromol/L incubated for 3 days by MTS assay relative to control; assay type: functional; details: dose 10 µmol/L; time 3 day; at 10 µM
LNCaP [8] = experiment: Antiproliferative activity against human LNCaP cells assessed as suppression in cell growth at 10 micromol/L incubated for 3 days by MTS assay relative to control; assay type: functional; details: dose 10 µmol/L; time 3 day; at 10 µM
U-87 MG [9] = experiment: Antiproliferative activity against human U-87MG cells assessed as suppression in cell growth at 10 micromol/L incubated for 3 days by MTS assay relative to control; assay type: functional, U-87MG ATCC; details: dose 10 µmol/L; time 3 day; at 10 µM
A549 [10] = experiment: Antiproliferative activity against human A549 cells assessed as suppression in cell growth at 10 micromol/L incubated for 3 days by MTS assay relative to control; assay type: functional; details: dose 10 µmol/L; time 3 day; at 10 µM
A498 [11] = experiment: Antiproliferative activity against human A498 cells assessed as suppression in cell growth at 10 micromol/L incubated for 3 days by MTS assay relative to control; assay type: functional; details: dose 10 µmol/L; time 3 day; at 10 µM
MDA-MB-361 [12] = experiment: Induction of apoptosis in PI3K/mTOR hyperactive human MDA-MB-361 cells assessed as cell death at 0.001 to 100 micromol/L incubated for 24 hrs by FACS analysis; assay type: functional, cell-based; details: dose 0.001-100 µmol/L
MDA-MB-361 [13] = experiment: Induction of apoptosis in PI3K/mTOR hyperactive human MDA-MB-361 cells assessed as massive cell death at 0.001 to 100 micromol/L incubated for 48 hrs by FACS analysis; assay type: functional, cell-based; details: dose 0.001-100 µmol/L
MDA-MB-361 [14] = experiment: Induction of apoptosis in HER2 hyperactive human MDA-MB-361 cells assessed as cell death at 0.001 to 100 micromol/L incubated for 24 hrs by FACS analysis; assay type: functional, cell-based; details: dose 0.001-100 µmol/L
MDA-MB-361 [15] = experiment: Induction of apoptosis in HER2 hyperactive human MDA-MB-361 cells assessed as massive cell death at 0.001 to 100 micromol/L incubated for 48 hrs by FACS analysis; assay type: functional, cell-based; details: dose 0.001-100 µmol/L
MDA-MB-361 [16] = experiment: Induction of apoptosis in human MDA-MB-361 cells assessed as PARP cleavage at 0.5 to 5 micromol/L incubated for 48 hrs by Western blot analysis; assay type: functional, cell-based; details: dose 0.5-5 µmol/L
[17] = molecular target: T1, Serine/threonine-protein kinase mTOR (Homo sapiens, UniProt P42345); experiment: Inhibition of mTOR in human MDA-MB-361 cells assessed as 4EBP1 phosphorylation at S65 level at 1 micromol/L incubated 16 hrs by westernblot analysis; assay type: cell-based; details: dose 1.0 µmol/L
[18] = molecular target: T1, Serine/threonine-protein kinase mTOR; experiment: Inhibition of mTOR in human MDA-MB-361 cells assessed as 4EBP1 phosphorylation at T70 level at 1 micromol/L incubated 16 hrs by westernblot analysis; assay type: cell-based; details: dose 1.0 µmol/L
[19] = molecular target: T1, Serine/threonine-protein kinase mTOR; experiment: Inhibition of mTOR in human MDA-MB-361 cells assessed as 4EBP1 phosphorylation at T37/46 level at 1 micromol/L incubated 16 hrs by westernblot analysis; assay type: cell-based; details: dose 1.0 µmol/L
A498 [20] = experiment: Antiproliferative activity against human A498 cells assessed as reduction in cell size at 1 micromol/L incubated for 48 hrs by Flow cytometry analysis relative to control; assay type: functional; set-up: scale not given: the % may be the effect or the level left; details: dose 1 µmol/L, at 1 µM
MDA-MB-361 [21] = experiment: Inhibition of protein synthesis in human MDA-MB-361 cells at 3 micromol/L incubated for 3 hrs by [3H] methionine incorporation based scintillation counter analysis; assay type: functional, cell-based; details: dose 3.0 µmol/L
HEK293 = experiment: Antiproliferative activity against HEK293 cells assessed as reduction in polysomes at 0.5 micromol/L incubated for 16 hrs; assay type: functional, Homo sapiens; details: dose 0.5 µmol/L
U-87 MG [22] = experiment: Antitumor activity against human U-87MG cells assessed as lactate production incubated for 24 hrs; assay type: functional, cell-based; details: U-87MG ATCC, dose 0.01-10 µmol/L
U-87 MG [23] = experiment: Antitumor activity against human U-87MG cells assessed as reduction in lactate production at 1 micromol/L incubated for 24 hrs relative to control; assay type: functional, U-87MG ATCC; set-up: scale not given: the % may be the effect or the level left; details: dose 1 µmol/L, at 1 µM
MDA-MB-361 [24] = experiment: Antitumor activity against human MDA-MB-361 cells assessed as reduction in oxygen consumption rate at 1 micromol/L incubated for 1 hrs relative to control; assay type: functional; set-up: scale not given: the % may be the effect or the level left; details: dose 1 µmol/L, at 1 µM
A549 [25] = experiment: Antitumor activity against human A549 cells xenografted in female nude mouse model assessed as substantial regression in large tumor growth at 200 mg/kg, iv administered once a week; assay type: functional, organism-based
A549 [26] = experiment: Antitumor activity against VHL null-human A549 cells xenografted in female nude mouse model assessed as inhibition in tumor growth at 25 mg/kg, iv administered 5 times a week; assay type: functional, organism-based
MDA-MB-361 [27] = experiment: Induction of apoptosis in human MDA-MB-361 cells assessed as increase in G1 phase at 5 micromol/L incubated for 24 hrs by FACS analysis relative to control; assay type: functional; details: dose 5 µmol/L, at 5 µM
MDA-MB-361 [28] = experiment: Induction of apoptosis in human MDA-MB-361 cells assessed as little increase in G1 phase at 5 micromol/L incubated for 12 hrs by FACS analysis relative to control; assay type: functional, cell-based; details: dose 5.0 µmol/L
MDA-MB-361 [29] = experiment: Induction of apoptosis in human MDA-MB-361 cells assessed as increase in caspase-3/caspase-7 activity at 1 to 6 uM incubated for 24 to 48 hrs; assay type: functional, cell-based; details: dose 1-6 µM, time 24-48 hrs
LNCaP [30] = experiment: Induction of apoptosis in human LNCaP cells assessed as increase in caspase-3/caspase-7 activity at 1 to 6 uM incubated for 24 to 48 hrs; assay type: functional, cell-based; details: dose 1-6 µM, time 24-48 hrs

IC50 (MDA-MB-361 [1]): > 0.15 µg/mL
IC50 (MDA-MB-361 [2]): > 0.15 µg/mL
IC50 (MDA-MB-361 [3]): 4 ng/mL (≈ 0.00468 µM)
IC50 (A498 [4]): > 0.15 µg/mL
IC50 (A498 [5]): > 0.15 µg/mL
IC50 (A498 [6]): 0.03 µg/mL (≈ 0.0351 µM)
Structure (SMILES): CC(=O)O[C@H]1C(=O)[C@@]2(C)[C@H]([C@H](OC(=O)c3ccccc3)[C@]3(O)C[C@H](OC(=O)[C@H](O)[C@@H](NC(=O)c4ccccc4)c4ccccc4)C(C)=C1C3(C)C)[C@]1(OC(C)=O)CO[C@@H]1C[C@@H]2O [PACLITAXEL]

inhibition [17]: Active
inhibition [18]: Active
inhibition [19]: inactive
Structure (SMILES): CO[C@H]1C[C@@H]2CC[C@@H](C)[C@@](O)(O2)C(=O)C(=O)N2CCCC[C@H]2C(=O)O[C@H]([C@H](C)C[C@@H]2CC[C@@H](OC(=O)C(C)(CO)CO)[C@H](OC)C2)CC(=O)[C@H](C)/C=C(\C)[C@@H](O)[C@@H](OC)C(=O)[C@H](C)C[C@H](C)/C=C/C=C/C=C/1C [TEMSIROLIMUS]
Activity (MDA-MB-361 [7]): <=50%
Activity (LNCaP [8]): <=50%
Activity (U-87 MG [9]): <=50%
Activity (A549 [10]): <=50%
Activity (A498 [11]): <=50%
Activity (MDA-MB-361 [12]): inactive
Activity (MDA-MB-361 [13]): inactive
Activity (MDA-MB-361 [14]): inactive
Activity (MDA-MB-361 [15]): inactive
Activity (MDA-MB-361 [16]): inactive
Activity (A498 [20]): 97%
inhibition (MDA-MB-361 [21]): inactive
Activity (HEK293): 1.02
Activity (U-87 MG [22]): Dose-Dependent Effect
Activity (U-87 MG [23]): 80%
Activity (MDA-MB-361 [24]): 82%
Activity (A549 [25]): inactive
inhibition (A549 [26]): Active

Structure (SMILES): Oc1cccc(-c2nc(N3CCOCC3)c3oc4ncccc4c3n2)c1 [PI-103]
Activity (MDA-MB-361 [27]): 27%
Activity (MDA-MB-361 [28]): Active
Activity (MDA-MB-361 [29]): Active
Activity (LNCaP [30]): Active

Source: ChEMBL document CHEMBL5696439 (Cancer Res, 2010)
